Data: publication PMC5478727, “A Novel Small Molecule GDNF Receptor RET Agonist, BT13, Promotes Neurite Growth from Sensory Neurons in Vitro and Attenuates Experimental Neuropathy in the Rat” (Frontiers in Pharmacology, 2017)

Experiments:
[1] = target: Ca2+ channel (L, diltiazem site) (Rattus norvegicus, UniProt P22002); assay: CEREP Ca2+ channel (L, diltiazem site) (benzothiazepines) (antagonist radioligand); assay type: binding; details: BT13 1 μM; Cat. No. 0162; average of duplicate; read-out: Percentage of inhibition/potentiation from control
[2] = target: T1, serotonin receptor 5-HT2A (Homo sapiens, UniProt P28223); assay: CEREP 5-HT2A (h) (agonist radioligand); assay type: binding; details: BT13 1 μM; Cat. No. 0471; average of duplicate; read-out: Percentage of inhibition/potentiation from control
T1 construct: purchased CEREP (contract assay) 0471

[3] = target: T2, RET (Homo sapiens, UniProt P07949); assay: RET phosphorylation assay in MG87RET fibroblasts (GFRα3/RET and GFP/RET); assay type: cell-based, murine; details: 25–50 μM; in the presence and absence of GFRα3 co-receptor
T2 construct: full-length human RET (long isoform) in pCR3.1; expressed in transfected cells; host or cells: MG87RET murine fibroblasts

[4] = target: T3, histamine receptor H1 (Homo sapiens, UniProt P35367); assay: CEREP H1 (h) (antagonist radioligand); assay type: binding; details: BT13 1 μM; Cat. No. 0870; average of duplicate; read-out: Percentage of inhibition/potentiation from control
T3 construct: purchased CEREP (contract assay) 0870

[5] = test system: HepG2 cells
[6] = target: neurokinin receptor NK2 (Homo sapiens, UniProt P21452); assay: CEREP NK2 (h) (agonist radioligand); assay type: binding; details: read-out: Percentage of inhibition/potentiation from control
[7] = target: T4, GFRα1/RET (Homo sapiens, UniProt P07949); assay: Luciferase reporter-gene assay (PathDetect Elk-1), GFRα1/RET reporter cells; assay type: cell-based; details: GFRα1/RET reporter cell line
T4 construct: full-length human RET (long isoform) in pCR3.1; expressed in transfected cells; host or cells: MG87 murine fibroblasts (MG87RET + PathDetect Elk-1 + GFRα1)

[8] = target: T5, opioid receptor kappa (KOP) (Rattus norvegicus, UniProt P34975); assay: CEREP Kappa (KOP) (agonist radioligand); assay type: binding; details: BT13 1 μM; Cat. No. 1971; average of duplicate; read-out: Percentage of inhibition/potentiation from control
T5 construct: purchased CEREP (contract assay) 1971

[9] = test system: adult rat lumbar DRG sensory neurons; assay: Neurite outgrowth from cultured DRG neurons; assay type: cell-based; details: NGF 10 ng/ml, BT13 100 ng/ml
Experimental: Cultured lumbar DRG (L3–L5) neurons were prepared using a published method (O'Mullane et al., [2013]). After plating onto poly-L-ornithine (5 μg/ml)/laminin (5 μg/ml) coated coverslips for 1 h, DRG neurons were cultured for 24–30 h in fresh Neurobasal A/B27. GFLs, BT13, NGF, and vehicle control were added at the start of this period for a 24–30 h treatment, except when preceded by pre-treatment (1 h) with inhibitors (50 μM LY294002; 2 μM SU6656, […]; Biomol Research Laboratories, Plymouth Meeting, PA, USA). DRG neurons were then fixed (4% paraformaldehyde) and processed for immunocytochemistry with 1:200 Mouse anti-β III tubulin/AlexaFluor 594 (Sigma-Aldrich Cat# T8660 RRID:AB_477590) and 1:5,000 rabbit anti-calcitonin gene-related peptide/AlexaFluor 488 (Sigma-Aldrich Cat# C8198 RRID:AB_259091) and DAPI for nuclear staining (0.5 μg/ml, Molecular Probes). Image analysis of multichannel 12 bit Zeiss .ZVI or .TIF files (captured with a Zeiss Imager.M1/MRm camera/Zen software; Carl Zeiss Australia, North Ryde, NSW, Australia) was then performed by a researcher blinded to the experimental condition. Neurite initiation was measured by a single parameter (proportion of neurons with neurites longer than the soma diameter). Neurite elongation was measured by batch processing (HCA-Vision software; CSIRO Mathematical and Information Sciences, North Ryde, NSW, Australia) to obtain four parameters—Root number: number of primary neurites; Maximum length: length of longest neurite; Branch points: number of neurite branch points; and Total length: sum of neurite lengths (Kalous and Keast, [2010]; Kalous et al., [2012]). The number of neurons of each immunocytochemical class counted on each coverslip (technical replicates) was 50 for neurite initiation and 20 for neurite elongation. A minimum of three cultures from different rats (biological replicates) were analyzed for each treatment group.

[10] = target: opioid receptor delta (DOP) (Homo sapiens, UniProt P41143); assay: CEREP Delta (DOP) (h) (agonist radioligand); assay type: binding; details: BT13 1 μM; Cat. No. 0114; average of duplicate; read-out: Percentage of inhibition/potentiation from control
[11] = Solubility in the binding buffer; assay type: physicochemical; details: concentrations above 50 μM could not be tested
[12] = target: T6, serotonin receptor 5-HT1A (Homo sapiens, UniProt P08908); assay: CEREP 5-HT1A (h) (agonist radioligand); assay type: binding; details: BT13 1 μM; Cat. No. 0131; average of duplicate; read-out: Percentage of inhibition/potentiation from control
T6 construct: purchased CEREP (contract assay) 0131

[13] = target: T7, adrenergic receptor beta 3 (Homo sapiens, UniProt P13945); assay: CEREP Beta 3 (non-selective; antagonist radioligand); assay type: binding; details: BT13 1 μM; Cat. No. 3963; average of duplicate; read-out: Percentage of inhibition/potentiation from control
T7 construct: purchased CEREP (contract assay) Cat# 3963

[14] = target: T8, TrkB (Rattus norvegicus, UniProt Q63604); assay: Luciferase reporter-gene assay, TrkB reporter cells; assay type: cell-based; details: TrkB reporter cell line
T8 construct: expressed in transfected cells; host or cells: MG87 murine fibroblasts (MG87TrkB)

[15] = Pharmacokinetics after intravenous injection; assay type: in vivo; details: rat, 10 mg/kg intravenously
[16] = CGRP-positive neurons, vs control

T4 sequence (P07949 29-1114): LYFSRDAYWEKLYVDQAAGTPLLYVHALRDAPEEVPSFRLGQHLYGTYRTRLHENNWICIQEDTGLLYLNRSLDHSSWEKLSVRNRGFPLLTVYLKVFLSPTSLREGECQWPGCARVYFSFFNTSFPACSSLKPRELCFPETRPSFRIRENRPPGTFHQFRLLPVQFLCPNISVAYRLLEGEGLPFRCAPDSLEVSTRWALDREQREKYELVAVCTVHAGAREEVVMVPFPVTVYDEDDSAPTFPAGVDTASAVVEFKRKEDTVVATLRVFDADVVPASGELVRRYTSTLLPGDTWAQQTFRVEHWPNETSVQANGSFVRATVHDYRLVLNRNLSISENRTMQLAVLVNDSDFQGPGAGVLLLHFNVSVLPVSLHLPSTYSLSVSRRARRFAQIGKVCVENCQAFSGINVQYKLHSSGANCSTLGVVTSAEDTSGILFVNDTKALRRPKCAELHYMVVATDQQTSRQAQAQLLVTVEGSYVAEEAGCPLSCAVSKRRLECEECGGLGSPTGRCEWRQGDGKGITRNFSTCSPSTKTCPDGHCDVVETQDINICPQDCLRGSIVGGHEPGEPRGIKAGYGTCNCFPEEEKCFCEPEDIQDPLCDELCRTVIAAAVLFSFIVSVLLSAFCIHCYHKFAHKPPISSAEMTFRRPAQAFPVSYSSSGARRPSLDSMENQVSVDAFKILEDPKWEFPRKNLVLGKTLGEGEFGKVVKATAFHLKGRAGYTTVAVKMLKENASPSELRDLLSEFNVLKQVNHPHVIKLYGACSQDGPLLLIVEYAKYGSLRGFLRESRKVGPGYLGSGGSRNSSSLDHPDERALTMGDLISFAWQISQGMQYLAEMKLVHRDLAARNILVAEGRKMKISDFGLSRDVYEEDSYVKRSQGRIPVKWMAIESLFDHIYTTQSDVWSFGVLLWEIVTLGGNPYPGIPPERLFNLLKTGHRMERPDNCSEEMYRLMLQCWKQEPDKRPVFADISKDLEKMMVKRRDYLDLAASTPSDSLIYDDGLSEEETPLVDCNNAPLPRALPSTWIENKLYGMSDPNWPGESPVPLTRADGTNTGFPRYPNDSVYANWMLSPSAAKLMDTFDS
Sequence of Ca2+ channel (L, diltiazem site) (P22002 whole entry): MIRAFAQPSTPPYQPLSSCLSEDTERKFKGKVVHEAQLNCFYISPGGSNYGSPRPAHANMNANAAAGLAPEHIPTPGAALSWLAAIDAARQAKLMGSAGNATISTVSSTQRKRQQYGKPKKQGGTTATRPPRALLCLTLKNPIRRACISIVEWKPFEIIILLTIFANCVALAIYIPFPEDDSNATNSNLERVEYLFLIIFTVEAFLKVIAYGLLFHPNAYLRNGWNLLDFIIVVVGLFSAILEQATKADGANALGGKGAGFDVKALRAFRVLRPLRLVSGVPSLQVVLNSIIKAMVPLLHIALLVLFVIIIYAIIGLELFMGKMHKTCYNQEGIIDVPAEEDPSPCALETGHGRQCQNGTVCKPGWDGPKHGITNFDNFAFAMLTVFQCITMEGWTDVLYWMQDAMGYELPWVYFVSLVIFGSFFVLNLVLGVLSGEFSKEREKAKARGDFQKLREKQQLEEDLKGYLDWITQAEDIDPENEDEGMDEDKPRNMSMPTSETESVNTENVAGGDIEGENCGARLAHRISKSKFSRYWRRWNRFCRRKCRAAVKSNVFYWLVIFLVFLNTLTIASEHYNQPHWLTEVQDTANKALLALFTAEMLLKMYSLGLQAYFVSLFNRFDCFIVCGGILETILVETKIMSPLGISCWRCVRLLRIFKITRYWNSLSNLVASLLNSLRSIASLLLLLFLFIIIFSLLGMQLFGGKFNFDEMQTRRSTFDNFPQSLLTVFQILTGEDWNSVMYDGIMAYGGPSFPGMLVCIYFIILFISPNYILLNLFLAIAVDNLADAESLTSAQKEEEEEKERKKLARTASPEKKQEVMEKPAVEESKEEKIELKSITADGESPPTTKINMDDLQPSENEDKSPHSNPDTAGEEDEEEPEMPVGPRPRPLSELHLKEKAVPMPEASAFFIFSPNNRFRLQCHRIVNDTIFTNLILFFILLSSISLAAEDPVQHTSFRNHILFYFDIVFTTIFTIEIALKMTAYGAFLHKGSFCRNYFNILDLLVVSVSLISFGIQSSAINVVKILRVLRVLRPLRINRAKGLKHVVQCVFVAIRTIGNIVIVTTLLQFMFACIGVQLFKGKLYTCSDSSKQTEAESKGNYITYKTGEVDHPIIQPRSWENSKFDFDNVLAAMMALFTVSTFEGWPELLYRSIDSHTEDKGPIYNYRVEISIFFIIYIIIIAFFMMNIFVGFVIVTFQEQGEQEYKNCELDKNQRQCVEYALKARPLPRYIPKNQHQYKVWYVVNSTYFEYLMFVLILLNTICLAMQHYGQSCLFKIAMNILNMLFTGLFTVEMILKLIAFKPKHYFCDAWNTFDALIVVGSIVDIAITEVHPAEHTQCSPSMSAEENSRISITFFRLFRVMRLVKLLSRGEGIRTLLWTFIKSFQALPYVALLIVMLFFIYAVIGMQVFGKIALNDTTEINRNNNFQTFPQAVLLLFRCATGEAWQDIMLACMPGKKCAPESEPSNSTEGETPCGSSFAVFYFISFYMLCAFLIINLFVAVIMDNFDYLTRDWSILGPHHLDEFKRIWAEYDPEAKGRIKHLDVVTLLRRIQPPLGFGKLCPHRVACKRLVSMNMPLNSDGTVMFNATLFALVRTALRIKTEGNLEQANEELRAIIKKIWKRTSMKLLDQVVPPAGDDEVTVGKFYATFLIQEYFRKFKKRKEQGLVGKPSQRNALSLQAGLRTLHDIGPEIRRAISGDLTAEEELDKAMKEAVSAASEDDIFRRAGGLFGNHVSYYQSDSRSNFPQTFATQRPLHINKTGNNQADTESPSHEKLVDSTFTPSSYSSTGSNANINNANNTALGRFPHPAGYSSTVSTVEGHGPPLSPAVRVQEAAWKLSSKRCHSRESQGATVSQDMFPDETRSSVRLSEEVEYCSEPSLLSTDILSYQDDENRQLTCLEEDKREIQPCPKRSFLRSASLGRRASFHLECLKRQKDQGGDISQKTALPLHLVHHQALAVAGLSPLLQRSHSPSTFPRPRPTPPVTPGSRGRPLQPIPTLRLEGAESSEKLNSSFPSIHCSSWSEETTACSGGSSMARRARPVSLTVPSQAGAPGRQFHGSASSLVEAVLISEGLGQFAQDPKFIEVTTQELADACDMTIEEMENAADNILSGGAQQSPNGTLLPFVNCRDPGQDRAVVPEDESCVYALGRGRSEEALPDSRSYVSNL
T6 sequence (P08908 whole entry): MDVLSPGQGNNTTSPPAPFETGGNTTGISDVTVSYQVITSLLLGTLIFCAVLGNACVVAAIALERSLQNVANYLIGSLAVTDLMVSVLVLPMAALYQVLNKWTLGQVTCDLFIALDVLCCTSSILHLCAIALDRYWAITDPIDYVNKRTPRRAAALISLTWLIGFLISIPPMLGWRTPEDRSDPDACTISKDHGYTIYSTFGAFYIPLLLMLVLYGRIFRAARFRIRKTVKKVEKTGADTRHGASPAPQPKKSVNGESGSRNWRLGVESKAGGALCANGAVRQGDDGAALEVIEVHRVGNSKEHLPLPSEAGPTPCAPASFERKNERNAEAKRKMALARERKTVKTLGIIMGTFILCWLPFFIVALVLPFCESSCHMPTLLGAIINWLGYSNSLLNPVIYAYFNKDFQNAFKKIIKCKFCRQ
T5 sequence (P34975 whole entry): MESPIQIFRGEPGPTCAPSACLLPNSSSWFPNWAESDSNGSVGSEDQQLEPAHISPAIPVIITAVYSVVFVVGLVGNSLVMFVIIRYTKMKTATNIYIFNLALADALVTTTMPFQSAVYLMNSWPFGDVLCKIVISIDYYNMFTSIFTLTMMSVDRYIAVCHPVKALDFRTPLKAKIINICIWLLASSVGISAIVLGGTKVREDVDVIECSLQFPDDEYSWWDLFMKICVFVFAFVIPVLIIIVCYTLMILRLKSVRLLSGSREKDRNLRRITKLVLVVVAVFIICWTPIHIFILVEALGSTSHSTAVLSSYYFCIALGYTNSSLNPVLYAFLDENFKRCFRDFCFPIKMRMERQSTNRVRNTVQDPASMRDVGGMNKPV
T3 sequence (P35367 whole entry): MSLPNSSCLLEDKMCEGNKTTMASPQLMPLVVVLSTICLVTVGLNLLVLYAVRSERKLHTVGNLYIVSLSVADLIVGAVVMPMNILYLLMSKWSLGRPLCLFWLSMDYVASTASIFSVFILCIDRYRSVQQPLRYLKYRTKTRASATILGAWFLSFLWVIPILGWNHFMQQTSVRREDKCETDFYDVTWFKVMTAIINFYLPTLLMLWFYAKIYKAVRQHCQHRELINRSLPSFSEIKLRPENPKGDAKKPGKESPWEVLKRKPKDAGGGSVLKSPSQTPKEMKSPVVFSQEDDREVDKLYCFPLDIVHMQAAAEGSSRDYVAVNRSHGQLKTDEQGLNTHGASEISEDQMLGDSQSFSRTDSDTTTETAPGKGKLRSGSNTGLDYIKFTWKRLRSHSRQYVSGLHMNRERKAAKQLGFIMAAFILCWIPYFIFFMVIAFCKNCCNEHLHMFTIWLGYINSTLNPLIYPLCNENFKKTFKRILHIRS
Sequence of neurokinin receptor NK2 (P21452 whole entry): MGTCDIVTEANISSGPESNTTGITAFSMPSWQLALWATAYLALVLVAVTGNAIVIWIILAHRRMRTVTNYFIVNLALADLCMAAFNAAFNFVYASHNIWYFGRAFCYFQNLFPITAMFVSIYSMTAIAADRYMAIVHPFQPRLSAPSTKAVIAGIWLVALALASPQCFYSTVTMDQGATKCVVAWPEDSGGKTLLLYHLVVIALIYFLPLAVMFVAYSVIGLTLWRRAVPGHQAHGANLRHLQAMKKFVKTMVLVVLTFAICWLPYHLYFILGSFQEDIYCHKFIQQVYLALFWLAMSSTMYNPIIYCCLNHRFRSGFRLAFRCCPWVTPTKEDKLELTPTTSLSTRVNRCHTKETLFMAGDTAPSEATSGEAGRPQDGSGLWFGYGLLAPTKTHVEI
T2 sequence (P07949 29-1114): as the sequence (P07949 29-1114) above

SMILES: CCN(CC)S(=O)(=O)c1ccc(OC)c(N2CCN(C(=O)c3ccc(F)cc3C(F)(F)F)CC2)c1 [BT13]
- inhibition at 1 µM [1]: 16%
- inhibition at 1 µM [2]: -11%
- RET phosphorylation (170 kD mature glycosylated form), Western blotting [3]: elicited phosphorylation
- inhibition at 1 µM [4]: 5%
- Cytotoxicity to human hepatoma cells (HepG2; LD50) [5]: 90.4 ± 8.5 µM
- inhibition at 1 µM [6]: 5%
- efficacy, fold induction of luciferase above baseline [7]: 11.6 fold
- EC50 ([7]; 0.1–50 μM, read-out: EC50, luciferase activation): 17.4 µM
- inhibition at 1 µM [8]: 0%
- neurite initiation or extension ([9]; CGRP-negative neurons, ARTN 30 ng/ml): no effect
- neurite initiation ([9]; CGRP-positive neurons, ARTN 30 ng/ml, overnight): no effect
- neurite elongation, branch points, mean difference [9, 16]: 22 ± 5
- neurite elongation, maximum length, mean difference [9, 16]: 91 ± 13 μm
- neurite elongation, total length, mean difference [9, 16]: 797 ± 207 μm
- proportion of DRG neurons that expressed CGRP in culture ([9]; ARTN 30 ng/ml): did not alter
- inhibition at 1 µM [10]: 3%
- solubility in the binding buffer [11]: poor solubility
- inhibition at 1 µM [12]: -8%
- inhibition at 1 µM [13]: -5%
- activation of luciferase reporter [14]: did not activate luciferase
- Kp ([15]; male, Sprague Dawley, iv, plasma and brain samples 1, 3 and 6 h, read-out: BBB penetration): 0.55 to 0.68
- clearance ([15]; male, Sprague Dawley, plasma, iv): 78.3 mL/min
- Vd ([15]; male, Sprague Dawley, plasma, iv, one-compartment model): 23.6 L/kg
- half-life ([15]; male, Sprague Dawley, plasma, iv, one-compartment model, read-out: t1/2 (half-life in the blood) (converted)): 3.47 h
- BBB penetration ([15]; plasma and brain samples 1, 3 and 6 h, 10 mg/kg): 55–68%
